Broadly, the Ki is the dissociation constant of the complex between target and ligand, obtained from inhibition or displacement. Broadly, the EC50 is the concentration needed to bring the measured effect to its halfway point.

In patent US8435976B2, “4-substituted pyridin-3-yl-carboxamide compounds and methods of use” (F. Hoffmann-La Roche, priority 2009, dated 2013) one finds Ki, GI50 and EC50 data, which are given here for 20 molecules.

For one assay, the target named is T1, PIM1 (Homo sapiens, UniProt P11309).
T1 construct: made in house
T1 sequence (P11309 whole entry): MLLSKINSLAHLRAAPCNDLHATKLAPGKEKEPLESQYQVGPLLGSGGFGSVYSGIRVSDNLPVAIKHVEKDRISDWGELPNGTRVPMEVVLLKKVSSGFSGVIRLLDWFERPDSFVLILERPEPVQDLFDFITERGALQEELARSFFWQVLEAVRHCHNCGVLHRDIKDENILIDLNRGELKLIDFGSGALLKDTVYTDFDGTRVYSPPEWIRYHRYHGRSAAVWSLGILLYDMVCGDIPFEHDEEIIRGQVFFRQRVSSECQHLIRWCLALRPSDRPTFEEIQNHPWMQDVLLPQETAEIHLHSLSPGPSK
Kind of assay: Pim-1 kinase enzymatic assay (Caliper LC3000, FAM-Pimtide substrate). The assay is classed as biochemical. The note with it: 20 pM PIM1, 10 μM ATP, 90 minutes; read-out: PIM1 LC3K (Ki). The procedure:
(§1) Reaction Buffer contained 10 mM HEPES, pH 7.2, 10 mM MgCl2, 0.01% Tween 20, 2 mM DTT.
(§2) PIM reactions were carried out in a final volume of 10 μL per well in a 384-well plate. […] The separation of product and substrate was optimized by choosing voltages and pressure using Caliper's Optimizer software (Hopkinton, Mass.). The separation conditions used a downstream voltage of −500V, an upstream voltage of −2150V, and a screening pressure of −1.2 psi. […] Substrate conversion was calculated from the electrophoregram using HTS Well Analyzer software (Caliper Life Sciences, Hopkinton, Mass.). Ki values for the test compound were calculated.

The next assay concerns the target T2, PIM2 (Homo sapiens, UniProt Q9P1W9).
T2 construct: made in house
In words: Pim-2 kinase enzymatic assay (Caliper LC3000, FAM-Pimtide substrate). The assay is classed as biochemical. The note with it: 50 pM PIM2, 10 μM ATP, 90 minutes; read-out: PIM2 LC3K (Ki). As to the method: as §1, §2

In the next assay the target is T3, PIM3 (Homo sapiens, UniProt Q86V86).
T3 construct: made in house
Kind of assay: Pim-3 kinase enzymatic assay (Caliper LC3000, FAM-Pimtide substrate). The assay is classed as biochemical. The note with it: 55 pM PIM3, 10 μM ATP, 90 minutes; read-out: PIM3 LC3K (Ki). As to the method:
as §1, §2

Another assay concerns the target BaF3 PIM1 cells (Homo sapiens, UniProt P11309). In words: BaF3 PIM1 cell proliferation (Cell Titer Glo). It is filed as cell-based. As to conditions: incubated overnight; read-out: Prolif BaF3_PIM1 (IC50). The procedure: (§3) BaF3 parental line was obtained from the DSMZ repository. BaF3 lines transfected with PIM1 or PIM2 were generated. Mouse IL-3 was purchased from R&D Systems. G418 was purchased from Clontech. Media for BaF3 parental line contained RPMI, 10% FBS, 2 mM L-Glutamine, 2 ng/mL mIL-3. Media for BaF3 PIM1 & 2 lines contained RPMI, 10% FBS, 2 mM L-Glutamine, […]. Media for MM1.S line contained RPMI, 10% FBS, 2 mM L-Glutamine.
(§4) BaF3 parental cells, BaF3 PIM1 cells, BaF3 PIM2 cells, and MM1.S cells were seeded at 2 k/well, 5 k/well, 5 k/well, and 10 k/well respectively, in a 384-well plate, at 45 μL/well. Test compound was added at 5 μL/well. BaF3 cells (parental and transfected) were incubated overnight, while MM1.S cells were incubated for 72 hours at 37° C., 5% CO2. Cell Titer Glo Reagent (Promega) was added at 50 μL/well, the plates were incubated for 30 minutes, and their luminescence read on an HT Analyst. IC50/EC50 values for the test compound were calculated.
On the technique in general: ATP-based viability assays read luminescence as a measure of living cells.

Another assay relates to MM1.S cells. In words: MM1.S cell proliferation, 72 hours (Cell Titer Glo). As to conditions: Homo sapiens, 72 hours, read-out: Prolif MM1S ATP (EC50). It is filed as cell-based. As to the method: as §3, §4
A further assay deals with BaF3 PIM2 cells (Homo sapiens, UniProt Q9P1W9). In words: BaF3 PIM2 cell proliferation (Cell Titer Glo). It is filed as cell-based. As to conditions: incubated overnight; read-out: Prolif BaF3_PIM2 (IC50). The procedure:
as §3, §4

BaF3 PIM2 cells, sequence (Q9P1W9 whole entry, change not shown): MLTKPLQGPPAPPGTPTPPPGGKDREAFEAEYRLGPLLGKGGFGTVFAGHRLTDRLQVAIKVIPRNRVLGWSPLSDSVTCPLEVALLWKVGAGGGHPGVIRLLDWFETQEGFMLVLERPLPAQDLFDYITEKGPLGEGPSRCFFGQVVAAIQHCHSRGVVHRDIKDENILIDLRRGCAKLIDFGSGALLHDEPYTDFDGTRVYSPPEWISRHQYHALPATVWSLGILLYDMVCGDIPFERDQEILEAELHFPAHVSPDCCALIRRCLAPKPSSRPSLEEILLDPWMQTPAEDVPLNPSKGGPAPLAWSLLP
T2 sequence (Q9P1W9 whole entry): as the sequence (Q9P1W9 whole entry, change not shown) above
BaF3 PIM1 cells, sequence (P11309 whole entry, change not shown): as the sequence (P11309 whole entry) above

For `Nc1sc(Cc2ccccc2)nc1C(=O)Nc1cnccc1N1CCC[C@H](NC(=O)C(F)(F)F)C1` [Example 49, (S)-5-amino-2-benzyl-N-(4-(3-(2,2,2-trifluoroacetamido)piperidin-1-yl)pyridin-3-yl)thiazole-4-carboxamide], the Ki was determined as 29.7 nM at PIM1, 259 nM on PIM2 and 91.2 nM on PIM3. The GI50 at BaF3 PIM1 cells is 4000 nM. In the assay on MM1.S cells, the concentration giving a half-maximal response (EC50) was > 20000 nM.

Consider `Nc1sc(-c2c(F)cccc2F)nc1C(=O)Nc1cnccc1N1C[C@@H](N)C[C@@H](F)C1` [Example 63, 5-amino-N-(4-((3S,5R)-3-amino-5-fluoropiperidin-1-yl)pyridin-3-yl)-2-(2,6-difluorophenyl)thiazole-4-carboxamide], for which the inhibition constant (Ki) on PIM1 was determined as 0.437 nM; on PIM2, 3.86 nM; at PIM3, 0.246 nM. Further, the GI50 on BaF3 PIM1 cells is 3400 nM; on BaF3 PIM2 cells, 12900 nM. For the same molecule, the EC50 in the assay with MM1.S cells came out at 19900 nM.

Regarding `Nc1sc(C2CCCCC2)nc1C(=O)Nc1cnccc1N1CCC[C@H](N)C1` [Example 37, (S)-5-amino-N-(4-(3-aminopiperidin-1-yl)pyridin-3-yl)-2-cyclohexylthiazole-4-carboxamide], the Ki on PIM1 amounted to 1.14 nM; at PIM2, 0.635 nM. The GI50 on BaF3 PIM1 cells stood at 2200 nM. Also, in the assay with MM1.S cells, the 50% effective concentration (EC50) was 2100 nM.

Take `COc1ccc(-c2nc(C(=O)Nc3cnccc3N3CCC[C@H](N)C3)c(N)s2)c(F)c1` [Example 35, (S)-5-amino-N-(4-(3-aminopiperidin-1-yl)pyridin-3-yl)-2-(2-fluoro-4-methoxyphenyl)thiazole-4-carboxamide]: the inhibition constant Ki is 0.709 nM at PIM1, 5.28 nM on PIM2 and 1.13 nM at PIM3. The GI50 at BaF3 PIM1 cells was found to be 29.3 nM; on BaF3 PIM2 cells, 2000 nM. For the same molecule, the EC50 in the assay on MM1.S cells was determined as 2300 nM.

For the molecule `Nc1sc(-c2ccc(Cl)cc2)nc1C(=O)Nc1cnccc1N1CCC[C@H](N)C1` [Example 12, (S)-5-amino-N-(4-(3-aminopiperidin-1-yl)pyridin-3-yl)-2-(4-chlorophenyl)thiazole-4-carboxamide], the figures for the Ki at PIM1, on PIM2 and on PIM3 were 0.172 nM, 1.06 nM and 0.072 nM, respectively. For the same molecule, the GI50 amounted to 2300 nM at BaF3 PIM1 cells and 4200 nM at BaF3 PIM2 cells. Further, the concentration giving a half-maximal response (EC50) in the assay with MM1.S cells was 6800 nM.

With `Cc1ccc(-c2nc(C(=O)Nc3cnccc3N3CCC[C@H](N)C3)c(N)s2)cc1` [Example 30, (S)-5-amino-N-(4-(3-aminopiperidin-1-yl)pyridin-3-yl)-2-(4-tolylthiazole)-4-carboxamide], the inhibition constant (Ki) came to 0.076 nM at PIM1, 0.429 nM at PIM2 and 0.033 nM on PIM3. The figures for the GI50 on BaF3 PIM1 cells and on BaF3 PIM2 cells were 52.2 nM and > 5000 nM, respectively. In addition, the half-maximal effective concentration (EC50) in the assay on MM1.S cells worked out at 163 nM.

As to `N[C@H]1CCCN(c2ccncc2NC(=O)c2csc(-c3c(F)cccc3F)n2)C1` [Example 46, (S)-N-(4-(3-aminopiperidin-1-yl)pyridin-3-yl)-2-(2,6-difluorophenyl)thiazole-4-carboxamide], the concentration for a half-maximal effect (EC50) in the assay on MM1.S cells was 4800 nM.

As to `Nc1sc(-c2ccccc2)nc1C(=O)Nc1cnccc1N1CCC[C@H](N)C1` [Example 7, (S)-5-amino-N-(4-(3-aminopiperidin-1-yl)pyridin-3-yl)-2-phenylthiazole-4-carboxamide], the Ki at PIM1 came out at 0.091 nM; on PIM2, 0.203 nM; at PIM3, 0.0215 nM. Also, the results for the GI50 at BaF3 PIM1 cells and at BaF3 PIM2 cells were 73 nM and 3100 nM, respectively. Also, the EC50 in the assay with MM1.S cells was 141 nM.

As to `Nc1[nH]c(-c2ccccc2)nc1C(=O)Nc1cnccc1N1CCC[C@H](N)C1` [Example 20, (S)-5-amino-N-(4-(3-aminopiperidin-1-yl)pyridin-3-yl)-2-phenyl-1H-imidazole-4-carboxamide], the inhibitory constant (Ki) was 1200 nM at PIM1, 4900 nM on PIM2 and 496 nM on PIM3.

`Nc1scnc1C(=O)Nc1cnccc1N1CCC[C@H](N)C1` [Example 10, (S)-5-amino-N-(4-(3-aminopiperidin-1-yl)pyridin-3-yl)thiazole-4-carboxamide]: the inhibition constant Ki on PIM1 was 36.7 nM; at PIM2, 51.2 nM; at PIM3, 24 nM. On BaF3 PIM1 cells, the GI50 was found to be 3600 nM. Besides, the EC50 in the assay on MM1.S cells was > 20000 nM.

For `Nc1sc(-c2ccncc2)nc1C(=O)Nc1cnccc1N1CCC[C@H](N)C1` [Example 33, (S)-5-amino-N-(4-(3-aminopiperidin-1-yl)pyridin-3-yl)-2-(pyridin-4-yl)thiazole-4-carboxamide], the inhibition constant (Ki) came to 0.6 nM at PIM1 and 2.51 nM at PIM2. For the same molecule, the GI50 at BaF3 PIM1 cells was 410 nM; on BaF3 PIM2 cells it was 13300 nM. For the same molecule, in the assay with MM1.S cells, the EC50 was found to be 3500 nM.

On to `Nc1sc(-c2cccc(Cl)c2)nc1C(=O)Nc1cnccc1N1CCC[C@H](N)C1` [Example 13, (S)-5-amino-N-(4-(3-aminopiperidin-1-yl)pyridin-3-yl)-2-(3-chlorophenyl)thiazole-4-carboxamide], for which the Ki on PIM1 was determined as 0.102 nM; at PIM2, 0.403 nM; at PIM3, 0.04 nM. Moreover, the concentration for a half-maximal effect (EC50) in the assay with MM1.S cells is > 20000 nM.

As to `N[C@H]1CCCN(c2ccncc2NC(=O)c2csc(-c3ccccc3)n2)C1` [Example 48, (S)-N-(4-(3-aminopiperidin-1-yl)pyridin-3-yl)-2-phenylthiazole-4-carboxamide], the Ki at PIM1 was 1.33 nM; at PIM2, 6.84 nM; on PIM3, 0.487 nM. For the same molecule, on BaF3 PIM1 cells, the GI50 worked out at 1400 nM. Also, the 50% effective concentration (EC50) in the assay on MM1.S cells was found to be 8000 nM.

Take `Nc1sc(-c2ccccc2)nc1C(=O)Nc1cccnc1` [Example 14, 5-amino-2-phenyl-N-(pyridin-3-yl)thiazole-4-carboxamide]: the Ki on PIM1 turned out to be 36.7 nM; at PIM2, 195 nM; at PIM3, 9.25 nM. Moreover, in the assay on MM1.S cells, the concentration for a half-maximal effect (EC50) was > 20000 nM.

In the case of `Nc1sc(C2CCNC2)nc1C(=O)Nc1cnccc1N1CCCC(N)C1` (stereo not drawn) [Example 64, 5-amino-N-(4-(3-aminopiperidin-1-yl)pyridin-3-yl)-2-(pyrrolidin-3-yl)thiazole-4-carboxamide], the values for the inhibitory constant (Ki) at PIM1, on PIM2 and on PIM3 were 21.6 nM, 57.7 nM and 18 nM, respectively.

Turning to `Nc1sc(-c2cn3ccccc3n2)nc1C(=O)Nc1cnccc1N1CCC[C@H](N)C1` [Example 19, (S)-5-amino-N-(4-(3-aminopiperidin-1-yl)pyridin-3-yl)-2-(imidazo[1,2-a]pyridin-2-yl)thiazole-4-carboxamide], the figures for the inhibitory constant (Ki) on PIM1 and at PIM2 were 0.735 nM and 3.55 nM, respectively. In addition, the GI50 was 581 nM at BaF3 PIM1 cells and > 20000 nM at BaF3 PIM2 cells. The EC50 in the assay with MM1.S cells is 3200 nM.

With `Nc1sc(-c2c(F)cccc2Cl)nc1C(=O)Nc1cnccc1N1CCC[C@H](N)C1` [Example 55, (S)-5-amino-N-(4-(3-aminopiperidin-1-yl)pyridin-3-yl)-2-(2-chloro-6-fluorophenyl)thiazole-4-carboxamide], the inhibition constant (Ki) on PIM1 is 0.032 nM; at PIM2, 0.12 nM; at PIM3, 0.028 nM. Besides, the EC50 in the assay with MM1.S cells came out at 158 nM.

Turning to `Nc1sc(-c2c(F)cccc2F)nc1C(=O)Nc1cnccc1N1CCC[C@H](N)C1` (single isomer, unassigned) [Example 25], the GI50 on BaF3 PIM1 cells came to 1500 nM. Moreover, the EC50 with MM1.S cells was found to be 1500 nM.

Take `Nc1sc(Cc2ccccc2)nc1C(=O)Nc1cnccc1N1CCC[C@H](N)C1` [Example 38, (S)-5-amino-N-(4-(3-aminopiperidin-1-yl)pyridin-3-yl)-2-benzylthiazole-4-carboxamide]: the results for the Ki on PIM1, on PIM2 and at PIM3 were 3.73 nM, 33.8 nM and 12.7 nM, respectively. In addition, the GI50 at BaF3 PIM1 cells is 3200 nM. Besides, the EC50 in the assay on MM1.S cells was 11900 nM.

Take `CC(C)c1nc(C(=O)Nc2cnccc2N2CCC[C@H](N)C2)c(N)s1` [Example 36, (S)-5-amino-N-(4-(3-aminopiperidin-1-yl)pyridin-3-yl)-2-isopropylthiazole-4-carboxamide]: the values for the inhibition constant (Ki) at PIM1, on PIM2 and on PIM3 were 2.18 nM, 8.69 nM and 3.77 nM, respectively. For the same molecule, the GI50 on BaF3 PIM1 cells was found to be 562 nM. The concentration giving a half-maximal response (EC50) in the assay on MM1.S cells worked out at 14000 nM.
